Assay results from paper PMC7481839, “Switchable foldamer ion channels with antibacterial activity” (Chemical Science, 2020).
≈ marks a conversion by molar mass, not a printed value. Where a SMILES comes first, the peptide text is derived from it.

Key:
[1] = HPTS assay of ionophoric activity in phospholipid vesicles; assay type: biochemical; conditions: Table S1, HPTS assay
Protocol: The membrane activity of 1, 2, Cu[1]Cl2 and Cu[2]Cl2 was assessed in phospholipid vesicle membranes using 8-hydroxypyrene-1,3,6-trisulfonate (HPTS) assays. HPTS assays can show ionophoric activity that occurs via any combination of M^+/H^+ antiport, X^–/OH^– antiport, M^+/OH^– symport and X^–/H^+ symport.
The HPTS assays of 1, 2, Cu[1]Cl2 and Cu[2]Cl2 used 1 : 4 cholesterol : egg yolk phosphatidylcholine (EYPC) vesicles in MOPS buffer (pH 7.4) with 100 mM of an appropriate salt (e.g. KCl, KBr, NaCl), following previously reported procedures.[16] The resulting normalised data were fitted to pseudo first-order rate equations as an approximation (see the ESI ^†).[32] Although the change in fluorescence after the “burst phase” is likely to arise from multiple processes, including inter-vesicle transfer of foldamers,[33] this fitting allows the relative effectiveness of each compound to be compared.
CuCl2 was added at 2 min, followed by addition of 2.2 eq. EDTA at 3 min.
5.1 Preparation of large unilamellar vesicles for HPTS assays
The HPTS assays of 1, 2, Cu[1]Cl2 and Cu[2]Cl2 used 1:4 cholesterol:egg yolk phosphatidylcholine (EYPC) vesicles in MOPS buffer (pH 7.4) with 100 mM of an appropriate salt (e.g. KCl, KBr, NaCl).5 Aliquots of 1, 2, Cu[1]Cl2 or Cu[2]Cl2 dissolved in methanol were mixed with the vesicle suspensions for 60 s before adding a base pulse to change the external pH to 8.4.6 The resulting change in HPTS fluorescence was followed for 6 min, then Triton X-100 was added at 7 min to lyse the vesicles […]. Each assay was repeated three times on new vesicles. The resulting normalized data were fitted to pseudo first-order rate equations as an approximation (see the ESI), similar to the procedure of Regen and co-workers.7 Although the change in fluorescence after the “burst phase” is likely to arise from multiple processes, including inter-vesicle transfer of foldamers,8 this fitting allows the relative effectiveness of each compound to be compared.
Egg yolk phosphatidylcholine (EYPC, 64 μmol) and cholesterol (16 μmol) were dissolved in 2 mL chloroform (spectroscopic grade). The solvent was removed under reduced pressure resulting in a thin film of lipid on the inside wall of the round bottom flask, which was dried further under vacuum for 2 hours. 1.2 mL of a trisodium 8-hydroxypyrene-1,3,6-trisulfonate (HPTS, 100 mM, pH = 7.4) dye in (3-(N-morpholino) propanesulfonic acid) buffer (20 mM MOPS, 100 mM MX (M = K or Na, X = Cl, Br or NO3− adjusted to pH 7.4 using NaOH) were added to the lipid film. Afterwards, the thin film was detached from the sides of the flask by vortex mixing. The resulting lipid suspension was then extruded 19 times through an 800 nm polycarbonate membrane in an Avestin Liposofast extruder to give a suspension of 800 nm large unilamellar vesicles. Unencapsulated HPTS dye was removed by gel permeation chromatography on PD-10 SEC columns (Sephadex G-25). Hereby 1 mL of the 800 nm vesicle suspension was diluted to 2.5 mL with 20 mM MOPS buffer solution and loaded onto the GPC column. The suspension run onto the column, followed by 3.5 mL of 20 mM MOPS buffer, which were collected, giving a stock vesicle solution of 3.5 mL (final concentration of lipids = 15.23 mM). This solution of vesicles was used directly in the HPTS experiments.
5.2 Procedure for HPTS assays
100 μL of the vesicle stock solution was diluted to 2 mL with 20 mM MOPS buffer (final lipid concentration in cuvette 0.762 mM). To this vesicle suspension was then added 20 μL of the principle compound in methanol (1 mM or 0.6 mM for Cu[2]Cl2) and the cuvette was equipped with a stirrer bar. The cuvette was […]

Solubility = assay type: physicochemical
Excerpt: Mixing 1 or 2 with CuCl2 or CuCl provided green or blue complexes respectively. […] The blue complexes from the addition of CuCl gave very broad NMR spectra even after preparing fresh samples, which was ascribed to in situ oxidation of Cu(I); Cu(I)(TPA) complexes are very efficient one electron donors and will rapidly reduce alkyl halides[27] and oxygen.[28] Furthermore these blue products gave green solids when dried (see the ESI, Fig. S2 ^†).
Although alamethicin is a very active channel former, its use in the clinic is hampered by its high haemolytic activity.[52] […] It is known that the haemolytic activity of amphipathic peptides, including alamethicin, decreases substantially on a reduction of peptide hydrophobicity and hydrophobic moment.[56]

[2] = U-tube sodium picrate transport experiment; conditions: 1 mM in chloroform, 20 mM MOPS, 100 mM NaCl, pH 7.4, 25 °C, after 24 h, UV at 356 nm
Protocol: To assess if these compounds can act as cation carriers, U-tube experiments for sodium picrate transport were performed on 1, Cu(II)[1]Cl2 and Cu(II)[2]Cl2. […] Similarly, a U-tube experiment for chloride transport was performed using lucigenin.[4],[40]
5.7 Preparation of large unilamellar vesicles for CF release assays
A 50 mM 5(6)-carboxyfluorescein (CF) solution in MOPS buffer (20 mM MOPS, 100 mM NaCl, pH 7.4) was prepared by dissolving 5/6-CF in MOPS buffer, adding a sodium hydroxide (1M) solution dropwise until pH 11 was reached. The resulting solution was the slowly acidified to pH 7.4.
EYPC-cholesterol (4:1) 800 nm vesicles were prepared as described above, using the above mentioned 5(6)-carboxyfluorescein (CF) (50 mM) solution. […]
The U-tube was incubated in a water bath at 25 °C and the chloroform phase was stirred at 300 rpm during the entire experiment, ensuring efficient diffusion of any potential carrier-ion complex to the receiving phase. Aliquots (1 mL) were taken from the receiving phase and analysed for the presence of picrate by UV spectroscopy (at 356 nm). […]
Figure S11: U-tube metal picrate transport data for foldamer 1 (brown), Cu[2]Cl2 (black), Cu[1]Cl2 (green), and the control transporter, dibenzo-18-crown-6 (red). Absorbance at 356 nm. […]

CC(C)(C)OC(=O)C(C)(C)NC(=O)C(C)(C)NC(=O)C(C)(C)NC(=O)C(C)(C)NC(=O)C(C)(C)NC(=O)C(C)(C)NC(=O)C(C)(C)NC(=O)C(C)(C)n1cc(CN(Cc2ccccn2)Cc2ccccn2)nn1 [foldamer 1] (HELM PEPTIDE1{[CC(C)(C(=O)[*:2])n1cc(CN(Cc2ccccn2)Cc2ccccn2)nn1].[Aib].[Aib].[Aib].[Aib].[Aib].[Aib].[Aib].[CC(C)(C)O[*:1]]}$$$$V2.0)
Apparent observed rate constant kobs, KBr ([1]; 100 mM KBr, compound 10 µM): 3.3 10−3 s−1
Apparent observed rate constant kobs, KCl ([1]; 100 mM KCl, compound 10 µM): 3 10−3 s−1
Apparent observed rate constant kobs, KNO3 ([1]; 100 mM KNO3, compound 10 µM): 4 10−3 s−1
Apparent observed rate constant kobs, NaCl ([1]; 100 mM NaCl, compound 10 µM, methanol control 1 × 10−3 s−1): 4 10−3 s−1
solubility limit (Solubility): 20 µM (≈ 20.4 µg/mL)
sodium picrate transport across the bulk chloroform phase [2]: No transport across the bulk phase was observed
